The values that follow come from patent US20120270819A1, “USE OF COMPOUNDS WITH SGLT-1/SGLT-2 INHIBITOR ACTIVITY FOR PRODUCING MEDICAMENTS FOR TREATMENT OF BONE DISEASE” (SANOFI, priority 2009, published 2012).

The target of the assay is T1, human sodium-dependent glucose transporter 1 (SGLT1, SLC5A1) (Homo sapiens, UniProt P13866).
T1 construct: Bases 11 to 2005 correspond to the complete coding region of human SGLT1; expressed in transfected cells; host or cells: CHO-TRex cells (Invitrogen), pcDNA4/TO vector, tetracycline-induced
T1 sequence (P13866 1-664): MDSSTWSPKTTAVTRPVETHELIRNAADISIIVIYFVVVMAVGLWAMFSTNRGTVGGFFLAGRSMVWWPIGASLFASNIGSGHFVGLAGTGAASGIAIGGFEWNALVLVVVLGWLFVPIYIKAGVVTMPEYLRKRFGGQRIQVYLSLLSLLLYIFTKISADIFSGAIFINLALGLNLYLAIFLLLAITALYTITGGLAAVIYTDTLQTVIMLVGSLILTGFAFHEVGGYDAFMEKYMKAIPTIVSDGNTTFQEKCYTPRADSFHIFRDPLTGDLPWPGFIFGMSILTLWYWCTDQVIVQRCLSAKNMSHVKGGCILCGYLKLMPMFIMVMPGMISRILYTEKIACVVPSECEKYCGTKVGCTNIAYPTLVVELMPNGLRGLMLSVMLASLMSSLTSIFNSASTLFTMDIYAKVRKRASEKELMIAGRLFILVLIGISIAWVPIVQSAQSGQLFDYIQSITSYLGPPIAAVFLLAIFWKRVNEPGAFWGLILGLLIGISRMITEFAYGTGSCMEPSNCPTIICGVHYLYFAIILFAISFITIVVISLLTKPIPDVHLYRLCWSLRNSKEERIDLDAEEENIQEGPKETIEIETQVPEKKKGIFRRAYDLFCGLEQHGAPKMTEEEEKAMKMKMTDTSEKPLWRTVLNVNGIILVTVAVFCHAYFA
As to the kind of experiment: Inhibition of methyl α-D-glucopyranoside uptake in CHO-TRex-hSGLT1 cells. Format: cell-based. As to conditions: recombinant SGLT1; read-out: IC50 SGLT 1. From the text:
A further method for testing the activity of the compounds is the inhibition of the transport activity of the human sodium-dependent glucose transporter 1 (SGLT1, SLC5A1) in vitro:
1. Cloning of an Expression Vector for Human SGLT1
The cDNA for human SGLT1 was introduced into the pcDNA4/TO vector (Invitrogen) by standard methods of molecular biology as described in Sambrook et al. (Sambrook et al., Molecular Cloning, A Laboratory Manual, 2nd Edition). […] Bases 11 to 2005 correspond to the complete coding region of human SGLT1.
2. Preparation of a Recombinant Cell Line with Inducible Expression of Human SGLT1
The expression vector for human SGLT1 was introduced into CHO-TRex cells (Invitrogen) by means of FuGene6 lipofection (Roche). To select single cell clones, 600 μg/ml Zeocin (Invitrogen) was added to the cell culture medium (Nutrient Mixture F-12 (Ham), (Invitrogen) supplemented with 10% fetal calf serum (BD Biosciences), 10 μg/ml blasticidin S(CN Biosciences), 100 units/ml penicillin, 100 units/ml streptomycin). The functionality of the single cell clones resulting from the selection was tested via their uptake activity for radiolabeled methyl α-D-glucopyranoside. The cell clone with the greatest uptake activity for methyl α-D-glucopyranoside, referred to as CHO-TRex-hSGLT1 hereinafter, was selected for further experiment, and cultivation was continued in the presence of 600 μg/ml of zeocin.
3. Measurement of the Inhibitory Effect of Test Substances on the Uptake of Methyl-D-qlucopyranoside (-MDG)
CHO-TRex-hSGLT1 cells were seeded in a concentration of 50 000 cells per well in Cytostar-T scintillating 96-well plates (Amersham Biosciences) in cell culture medium and cultivated for 24 h. Expression of the recombinant human SGLT1 was induced by adding 1 μg/ml tetracyclin for a further 24 h. For α-MDG uptake experiments, the cells were washed with PBS and then starved (PBS supplemented with 10% fetal calf serum) at 37° C. for one hour. […]
The final concentration of methyl α-D-glucopyranoside in the assay was 50 μM. After an incubation time of 30 min at room temperature, the reaction was stopped by adding 50 μl/well of 10 mM methyl α-D-glucopyranoside in transport assay buffer (4° C.), and the radioactivity uptake by the cells was determined in a MicroBeta Scintillation Microplate Reader (Wallac). The half-maximum inhibitory effect of the test substances (IC50) was determined in the following way: • 1. […] This is the measurement in the absence of substance, measured in sodium-containing transport assay buffer. • 2. […] This is the measurement in the absence of substance, measured in sodium-free transport assay buffer (140 mM choline chloride, 2 mM potassium chloride, 1 mM magnesium chloride, 1 mM calcium chloride, 10 mM HEPES/Tris, pH7.5). • 3. […]

For orientation: IC50 means the point on the concentration scale where inhibition reaches its midpoint.

For `COc1ccc(Cc2ccccc2OC2OC(CO)C(F)C(O)C2O)cc1` (stereo not shown) [Example 1 of formula III], the IC50 was 770 nM.

As to `COc1ccc(Cc2c(OC3OC(CO)C(F)C(O)C3O)n[nH]c2C(F)(F)F)cc1` (stereo not shown) [Example 5 of formula II], the IC50 is 29 nM.

`CCc1ccc(Cc2ccccc2OC2OC(CO)C(F)C(O)C2O)cc1` (stereo not shown) [Example 20 of formula III]: the IC50 was 320 nM.

On to `CC(C)c1[nH]nc(OC2OC(CO)C(F)C(O)C2O)c1Cc1ccc(CCCC(=O)NC(CO)(CO)CO)cc1` (stereo not shown) [Example 21 of formula I], for which the IC50 came out at 27 nM.
